Biological target: T1, urease (from jack beans) (Canavalia ensiformis, UniProt P07374)
T1 construct: urease (from jack beans); lyophilized 5 U/mg for urea assay in serum; purchased Merck KGaA, Germany; host or cells: jack beans (natural source)
Assay: odor-preventing effect: ammonia release from urea/urease solution, read with a diffusion tube
Format: biochemical
Conditions: 2 g composition, 30 mg urease, 50 ml 0.9% NaCl with 8.56 g/l urea, 23° C.
Description: 100 g lots of water-absorbing polymer from Example 1 were mixed in a tumble mixer with different amounts of N-cyclohexylthiophosphoramide, N-(n-butyl)thiophosphoramide or N-(n-propyl)thiophosphoramide, for 20 minutes each.
To determine the odor-preventing effect, 2 g of each of the compositions produced above were placed in a 100 ml Erlenmeyer flask and admixed with a freshly prepared solution of 30 mg of urease (from jack beans; lyophilized 5 U/mg for urea assay in serum; Merck KGaA, Germany) and 50 ml of 0.9% sodium chloride solution, the sodium chloride solution containing 8.56 g/l of urea, and sealed with a stopper having an internal diffusion tublet (Drager® Röhrchen; ammonia 20/a-D, 20 to 1500 ppm*h). The measured value was read off every 30 minutes. The measurement was discontinued after 6 hours. The test was carried out at 23° C.

[1] = 0.01 % by weight substituted thiophosphoramide in composition with water-absorbing polymer
[2] = 0.05 % by weight substituted thiophosphoramide in composition with water-absorbing polymer
[3] = 0.15 % by weight substituted thiophosphoramide in composition with water-absorbing polymer
[4] = 0.25 % by weight substituted thiophosphoramide in composition with water-absorbing polymer
[5] = 0.35 % by weight substituted thiophosphoramide in composition with water-absorbing polymer
[6] = 0.50 % by weight substituted thiophosphoramide in composition with water-absorbing polymer
[7] = 1.50 % by weight substituted thiophosphoramide in composition with water-absorbing polymer

T1 sequence (P07374 whole entry, looked up): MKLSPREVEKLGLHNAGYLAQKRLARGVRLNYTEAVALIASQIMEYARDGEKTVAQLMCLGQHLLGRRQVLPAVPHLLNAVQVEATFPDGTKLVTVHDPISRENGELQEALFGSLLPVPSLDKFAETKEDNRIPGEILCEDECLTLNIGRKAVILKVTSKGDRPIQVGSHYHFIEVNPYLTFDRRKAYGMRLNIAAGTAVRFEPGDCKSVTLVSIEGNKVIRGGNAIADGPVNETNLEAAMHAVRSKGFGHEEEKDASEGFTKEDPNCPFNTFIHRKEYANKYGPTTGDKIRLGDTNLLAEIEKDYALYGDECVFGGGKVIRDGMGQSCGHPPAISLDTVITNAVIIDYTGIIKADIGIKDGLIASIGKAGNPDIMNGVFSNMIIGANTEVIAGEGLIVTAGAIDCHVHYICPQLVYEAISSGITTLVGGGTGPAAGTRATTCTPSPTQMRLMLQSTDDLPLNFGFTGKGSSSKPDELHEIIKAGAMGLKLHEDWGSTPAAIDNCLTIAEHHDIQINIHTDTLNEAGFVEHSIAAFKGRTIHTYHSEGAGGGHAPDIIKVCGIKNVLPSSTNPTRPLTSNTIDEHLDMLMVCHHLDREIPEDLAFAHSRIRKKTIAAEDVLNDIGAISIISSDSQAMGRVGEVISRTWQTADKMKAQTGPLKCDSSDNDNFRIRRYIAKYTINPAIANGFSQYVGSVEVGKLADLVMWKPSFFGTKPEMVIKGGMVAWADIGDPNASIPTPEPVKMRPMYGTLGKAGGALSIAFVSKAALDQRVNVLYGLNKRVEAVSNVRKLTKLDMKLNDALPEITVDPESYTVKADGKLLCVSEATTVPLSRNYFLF

## NP(N)(=S)NC1CCCCC1 [R = cyclohexyl, N-cyclohexylthiophosphoramide, reference compound]
[1]
  ammonia after 6 hours: − (more than 50 ppm of ammonia after 6 hours)
[2]
  ammonia after 6 hours: − (more than 50 ppm of ammonia after 6 hours)
[3]
  ammonia after 6 hours: − (more than 50 ppm of ammonia after 6 hours)
[4]
  ammonia after 6 hours: − (more than 50 ppm of ammonia after 6 hours)
[5]
  ammonia after 6 hours: + (less than 50 ppm of ammonia after 6 hours)
[6]
  ammonia after 6 hours: + (less than 50 ppm of ammonia after 6 hours)
[7]
  ammonia after 6 hours: + (less than 50 ppm of ammonia after 6 hours)

## CCCCNP(N)(N)=S [R = n-butyl, N-(n-butyl)thiophosphoramide]
[1]
  ammonia after 6 hours: + (less than 50 ppm of ammonia after 6 hours)
[2]
  ammonia after 6 hours: + (less than 50 ppm of ammonia after 6 hours)
[3]
  ammonia after 6 hours: + (less than 50 ppm of ammonia after 6 hours)
[4]
  ammonia after 6 hours: + (less than 50 ppm of ammonia after 6 hours)
[5]
  ammonia after 6 hours: + (less than 50 ppm of ammonia after 6 hours)
[6]
  ammonia after 6 hours: + (less than 50 ppm of ammonia after 6 hours)
[7]
  ammonia after 6 hours: + (less than 50 ppm of ammonia after 6 hours)

## CCCNP(N)(N)=S [R = n-propyl, N-(n-propyl)thiophosphoramide]
[1]
  ammonia after 6 hours: + (less than 50 ppm of ammonia after 6 hours)
[2]
  ammonia after 6 hours: + (less than 50 ppm of ammonia after 6 hours)
[3]
  ammonia after 6 hours: + (less than 50 ppm of ammonia after 6 hours)
[4]
  ammonia after 6 hours: + (less than 50 ppm of ammonia after 6 hours)
[5]
  ammonia after 6 hours: + (less than 50 ppm of ammonia after 6 hours)
[6]
  ammonia after 6 hours: + (less than 50 ppm of ammonia after 6 hours)
[7]
  ammonia after 6 hours: + (less than 50 ppm of ammonia after 6 hours)
